{"source": "patent US12458614B2", "about": "“Therapeutic agents for improved mobility and cognitive function and for treating neurodegenerative diseases and lysosomal storage disorders” (priority 2017, dated 2025)", "key": {"[1]": {"system": "Mucopolysaccharidosis Type VII (MPS VII) patient fibroblasts", "assay": "Lysosomal volume via LysoTracker", "assay_type": "cell-based, human", "conditions": "1 mM, 6 days"}, "[2]": {"system": "Sandhoff disease model, Hexb−/− mouse", "assay": "Lifespan of Sandhoff mouse", "assay_type": "in vivo", "conditions": "0.1 g/kg from 3 weeks of age, p<0.05 vs untreated", "experimental": "This study made use of a mouse model of Sandhoff disease, the Hexb^−/− mouse, as descrbed in Jeyakumar et al. (Jeyakumar, M. et al. (1999) Proc. Natl. Acad. Sci. USA 96: 6388-6393).\nIn FIG. 7A, acetyl-leucine-treated mice were treated with 0.1 g/kg acetyl-leucine from 3 weeks of age. The asterisks (*) indicates a p-value of <0.05 vs untreated Sandhoff mice. Data is average of n=6 mice per group. Without treatment, the median survival time of Sandhoff mice was 112 days. Treatment with acetyl-leucine (0.1 g/kg body weight since 3 weeks of age) increased the median lifespan to 120 days."}, "[3]": {"system": "patients with Tay-Sachs disease", "assay": "Case studies, Tay-Sachs disease (SARA, SCAFI, MoCA)", "assay_type": "in vivo, human", "excerpt": "(§1) For example, to evaluate overall neurological status, mDRS, a four-domain scale (ambulation, manipulation, language and swallowing), may be applied. Cerebellar function may be evaluated using SARA, an eight-item clinical rating scale (gait, stance, sitting, speech, fine motor function and taxis; range 0-40, where 0 is the best neurological status and 40 the worst), and SCAFI, comprising the 8-m-Walking-Time (8MW; performed by having patients walking twice as quickly as possible from one line to another excluding turning), 9-Hole-Peg-Test (9HPT) and the number of “PATA” repetitions over 10 s. Subjective impairment and quality of life may be evaluated using the EQ-5D-5L questionnaire and VAS. To assess ocular motor function, 3-dimensional videooculography (EyeSeeCam) may be used to measure the peak velocity of saccades, gain of smooth pursuit, peak slow phase velocity of gaze-evoked nystagmus (gaze-holding function), peak slow phase velocity of optokinetic nystagmus, and gain of horizontal vestibulo-ocular reflex. To evaluate the cognitive state, WAIS-R or WISC-IV, and MoCA, assessing different cognitive domains, including attention and concentration, executive functions, memory, language, visuoconstructional skills, conceptual thinking, calculations, and orientation with a maximum of 30 points and a cut-off score of 26, may be used. The skilled person will know how to perform these and other such tests.\nThe day following this examination, the patient was started on therapy with acetyl-leucine, at a dose of 3 g per day for the first week, followed by a dose of 5 g per day for the second week onwards.\nThe day of the examination, the patient was started on therapy with acetyl-leucine at a dose of 3 g per day for the first week, followed by a dose of 5 g per day for the second week onwards.\nThe patient was started on therapy with acetyl-leucine at a dose of 1.5 g per day for the first week, followed by a dose of 3 g per day for the second week onwards."}, "[4]": {"system": "patient with GM1 Gangliosidosis", "assay": "Case study, GM1 Gangliosidosis", "assay_type": "in vivo, human", "conditions": "after one month, 1.5 g then 3 g per day", "excerpt": "For example, to evaluate overall neurological status, mDRS, a four-domain scale (ambulation, manipulation, language and swallowing), may be applied. Cerebellar function may be evaluated using SARA, an eight-item clinical rating scale (gait, stance, sitting, speech, fine motor function and taxis; range 0-40, where 0 is the best neurological status and 40 the worst), and SCAFI, comprising the 8-m-Walking-Time (8MW; performed by having patients walking twice as quickly as possible from one line to another excluding turning), 9-Hole-Peg-Test (9HPT) and the number of “PATA” repetitions over 10 s. Subjective impairment and quality of life may be evaluated using the EQ-5D-5L questionnaire and VAS. To assess ocular motor function, 3-dimensional videooculography (EyeSeeCam) may be used to measure the peak velocity of saccades, gain of smooth pursuit, peak slow phase velocity of gaze-evoked nystagmus (gaze-holding function), peak slow phase velocity of optokinetic nystagmus, and gain of horizontal vestibulo-ocular reflex. To evaluate the cognitive state, WAIS-R or WISC-IV, and MoCA, assessing different cognitive domains, including attention and concentration, executive functions, memory, language, visuoconstructional skills, conceptual thinking, calculations, and orientation with a maximum of 30 points and a cut-off score of 26, may be used. […]"}, "[5]": {"system": "patients with downbeat nystagmus", "assay": "Case studies, downbeat nystagmus", "assay_type": "in vivo, human"}, "[6]": {"system": "patient with spinocerebellar ataxia 28 (SCA 28)", "assay": "Case study, spinocerebellar ataxia 28", "assay_type": "in vivo, human", "conditions": "SCA 28 patient, about one month, 5 g per day", "experimental": "A gait analysis was performed before treatment commenced. After about one month of treatment, medication was stopped and the patient was evaluated. […] The patient reported that they no longer walked like a robot and could climb the stairs without using the banisters."}, "[7]": {"system": "patients with ataxia telangiectasia", "assay": "Case studies, ataxia telangiectasia (SARA, SCAFI, video-oculography)", "assay_type": "in vivo, human", "excerpt": "as §1\nAfter one month of treatment, the patient was re-evaluated. […] Examination indicated a Scale for Assessment and Rating of Ataxia (SARA) score of 15.5/40. Results from the patient's Spinocerebellar Ataxia Functional Index (SCAFI) analysis were: • Mean 8-meters Walking Test (8MW): 18.5 s • MW 9-Hole Pegboard Test Dominant (9HPTD) (right): 77.9 s • MW 9-Hole Pegboard Test Non-Dominant (9HPTND): 101.3 s • MW PATA Word Test: 13 • Visual analog scale (as evaluated by the patient): 85\nAfter one month of treatment, the patient was re-evaluated. […] Examination indicated a Scale for Assessment and Rating of Ataxia (SARA) score of 23.5/40.\nAfter slightly over 7 months of treatment, the patient was re-evaluated. […] Examination indicated a Scale for Assessment and Rating of Ataxia (SARA) score of 21.5/40.\nAfter slightly over 1 month of treatment, the patient was re-evaluated. […] The patient also reported that drinking was easier and no longer needed a straw. […] Examination indicated a Scale for Assessment and Rating of Ataxia (SARA) score of 18.5/40.\nAfter about 1 month of treatment, the patient was re-evaluated. […] On medication, they were able to walk with only holding the caregiver's hand.\nThe patient was evaluated after one month and six months of treatment, respectively. […] The patient, however, was suffering from anxiety, which would be expected to negatively influence the response."}, "[8]": {"system": "person with postural imbalance and gait disorder", "assay": "Case study Example 24", "assay_type": "in vivo, human", "experimental": "The patient was treated with Tanganil® 500 mg in 3 separate doses throughout the day—1 g upon waking, 1 g prior to lunch and 1 g prior to the evening meal for one week, followed by 2 g upon waking, 1.5 g prior to lunch and 1.5 g prior to the evening meal."}, "[9]": {"system": "patients with multiple system atrophy Parkinson type (MSA-P)", "assay": "Case studies, multiple system atrophy Parkinson type", "assay_type": "in vivo, human"}, "[10]": {"conditions": "DBN Patient 1, approximately 14 weeks"}, "[11]": {"conditions": "A-T Patient 3, after slightly over 7 months"}, "[12]": {"conditions": "A-T Patient 4, after slightly over 1 month"}, "[13]": {"conditions": "A-T Patient 5, after about 1 month"}, "[14]": {"conditions": "A-T Patient 5, after almost 7 months"}, "[15]": {"conditions": "MSA-P Patient 2, after one month of treatment"}}}
{"molecule": "CC(=O)NC(CC(C)C)C(=O)O", "note": "(racemic) [acetyl-DL-leucine]", "values": [{"measurement": "LysoTracker fluorescence vs untreated disease fibroblasts", "setting": "[1]", "result": "trend in reducing LysoTracker fluorescence toward control level"}, {"measurement": "Lifespan of the Sandhoff mouse", "setting": "[2]", "result": "statistically significant increase in the lifespan"}, {"measurement": "Overall symptoms", "setting": "[3]; Tay-Sachs Patient 1", "result": "improvement in symptoms"}, {"measurement": "Clinical re-examination", "setting": "[3]; Tay-Sachs Patient 1, after four months", "result": "stable condition with slightly improved cognitive function but had deterioration of stance, gait and fine motor function"}, {"measurement": "Clinical re-examination", "setting": "[3]; Tay-Sachs Patient 1, after one month, 3 g then 5 g per day", "result": "improved fine motor skills and reduced hand tremor"}, {"measurement": "Clinical re-examination", "setting": "[3]; Tay-Sachs Patient 2, after one month, 3 g then 5 g per day", "result": "increased enunciation, improved postural stability, and enhanced cognitive function"}, {"measurement": "Clinical re-examination", "setting": "[3]; Tay-Sachs Patient 3, after one month, 1.5 g then 3 g per day", "result": "increased fine motor skills"}, {"measurement": "Clinical re-examination", "setting": "[4]", "result": "stable general condition, increased gait (more fluent), and stable stance in natural position"}, {"measurement": "Effect of temporary suspension of the medication", "setting": "[5]; DBN Patient 1", "result": "considerable deterioration"}, {"measurement": "Side-effects", "setting": "[5]; DBN Patient 1, 5 gram per day", "result": "no side-effects resulted"}, {"measurement": "Benefit (patient report)", "setting": "[5]; DBN Patient 1, after 10 days, 3 g then 5 gram per day", "result": "significant benefit"}, {"measurement": "Nystagmus (clinical examination)", "setting": "[5]; [10]", "result": "reduction of the nystagmus"}, {"measurement": "Postural sway (posturography)", "setting": "[5]; [10]", "result": "reduction of postural sway"}, {"measurement": "Oscillopsia / reading and writing", "setting": "[5]; DBN Patient 1, approximately 14 weeks after starting", "result": "reduced oscillopsia"}, {"measurement": "Gait", "setting": "[5]; DBN Patient 2, 3 g/day then 5 g/day", "result": "improvement of gait"}, {"measurement": "Downbeat nystagmus (video-oculography)", "setting": "[5]; DBN Patient 2, on treatment", "result": "improved"}, {"measurement": "Symptomatology (patient report)", "setting": "[6]", "result": "improvement of the symptomatology, in particular reduced dizziness"}, {"measurement": "Video-oculography (summary)", "setting": "[7]; A-T Patient 1, after one month", "result": "significant improvement of fixation stability and decrease of intensity of downbeat-nystagmus"}, {"measurement": "Caregiver report", "setting": "[7]; A-T Patient 1, after one month, 5 g/day", "result": "improvement of speech and gait"}, {"measurement": "9-Hole Pegboard Test Dominant (9HPTD)", "setting": "[7]; A-T Patient 2, after one month", "result": 300, "unit": "s"}, {"measurement": "Mean 8-meters Walking Test (8MW)", "setting": "[7]; A-T Patient 2, after one month", "result": "not able to perform without support"}, {"measurement": "Video-oculography (summary)", "setting": "[7]; A-T Patient 2, after one month", "result": "improvement of fixation stability and significant improvement of downbeat-nystagmus intensity"}, {"measurement": "Caregiver report", "setting": "[7]; A-T Patient 2, after one month, 5 g/day", "result": "improvement of fine motor function, hand tremor, and speech"}, {"measurement": "Mean 8-meters Walking Test (8MW)", "setting": "[7]; [11]", "result": "not able to perform"}, {"measurement": "Video-oculography (summary)", "setting": "[7]; [11]", "result": "significant improvement of fixation stability and decrease of intensity of gaze-holding nystagmus at all positions"}, {"measurement": "Caregiver and patient report", "setting": "[7]; A-T Patient 3, after slightly over 7 months, 5 g/day", "result": "general improvement of well-being"}, {"measurement": "Mean 8-meters Walking Test (8MW)", "setting": "[7]; [12]", "result": "not able to perform"}, {"measurement": "Video-oculography (summary)", "setting": "[7]; [12]", "result": "general improvement of fixation stability and decrease of intensity of spontaneous and gaze-holding nystagmus at all positions"}, {"measurement": "Patient and family report", "setting": "[7]; A-T Patient 4, after slightly over 1 month, 5 g/day", "result": "improvement in handwriting"}, {"measurement": "Body weight gained", "setting": "[7]; [13]", "result": 1.5, "unit": "kg"}, {"measurement": "Mean 8-meters Walking Test (8MW)", "setting": "[7]; [13]", "result": "not able to walk without support"}, {"measurement": "Gait (reported by parent)", "setting": "[7]; A-T Patient 5, after about 1 month, 5 g/day", "result": "significant improvement of stability of the gait"}, {"measurement": "Further body weight gained", "setting": "[7]; [14]", "result": 3, "unit": "kg"}, {"measurement": "Gait (reported by parent)", "setting": "[7]; [14]", "result": "significantly more stable gait"}, {"measurement": "Clinical re-evaluation", "setting": "[7]; A-T Patient 5, after slightly over a year", "result": "improved social interaction, activity, and agility"}, {"measurement": "Adverse observation", "setting": "[7]; A-T Patient 5, after slightly over a year, suspected infantile migraine", "result": "repeatedly occurring frontal localized pain with vomiting in the morning"}, {"measurement": "Clinical evaluation", "setting": "[7]; A-T Patient 6, after one month, 1.5 g/day then 3 g/day", "result": "increased fine motor skills with reduced hand tremor"}, {"measurement": "Clinical evaluation", "setting": "[7]; A-T Patient 6, after six months", "result": "stable general conditions, stable gait and stance, and improved handwriting"}, {"measurement": "Tolerability", "setting": "[8]; 3 g/day one week then 5 g/day", "result": "well tolerated"}, {"measurement": "Dizziness, imbalance, gait (feedback by spouse)", "setting": "[8]; 22 days after beginning treatment", "result": "significant reduction of dizziness and imbalance, and significant improvement of gait"}, {"measurement": "Symptoms after stopping medication", "setting": "[9]; MSA-P Patient 1, 6 weeks later", "result": "did not report deterioration of symptoms"}, {"measurement": "Gait, falls, hypokinetic rigid-syndrome (patient report)", "setting": "[9]; MSA-P Patient 1, after 3 weeks", "result": "no significant improvement of gait, reduction of falls or improved hypokinetic rigid-syndrome"}, {"measurement": "Balance (clinical examination)", "setting": "[9]; [15]", "result": "improved balancing on an imaginary tightrope"}, {"measurement": "Dizziness (patient report)", "setting": "[9]; [15]", "result": "subjective improvement of dizziness"}, {"measurement": "Symptomatology (patient report)", "setting": "[9]; MSA-P Patient 2, after one month without medication", "result": "stable symptomatology"}, {"measurement": "Symptomatology (patient report)", "setting": "[9]; MSA-P Patient 2, after two months without medication", "result": "worsening of general symptomatology"}]}
